Each structure is given as a SMILES string. Read-outs that look alike come from different tables or passages of the source.

This test has as its system IL-8. Put plainly: Glucocorticoid transrepression assay, IL-8 inhibition (TR). The format is cell-based. Particulars: Homo sapiens, NCl-H292 cells, TNFα 10 ng/ml; for Emax: read-out: IL-8 inhibition (TR) Emax % inhibition. As to the method:
Human Lung epithelial cell line NCl-H292 cells were dissociated from stock flask using 0.05% trypsin/0.53 mM EDTA. Cells were suspended in complete medium and counted. Cells were plated in 96-well flat-bottom plates at 20K cells /well in 0.2 ml/well. Plates were incubated for 24-48 hours until cells were between 75-90% confluent. Medium was aspirated and replaced with medium containing various concentrations of steroids or antagonists. After 1 hour incubation at 37°, TNFα (10 ng/ml final concentration in 0.2 ml) was added and the cells incubated overnight. Control wells with and without TNF were included on each plate, as well as wells with TNF in addition to a maximum (10 μM) concentration of dexamethasone. The cell culture medium was sampled and IL-6 and IL-8 cytokine production was measured using the MSD Multi-Spot immunoassay.

For `CC12Cc3cnn(-c4ccc(F)cc4)c3C=C1CCC1C2[C@@H](O)CC2(C)C1CC[C@]2(O)C(=O)CSc1nc2ccc(O)cc2[nH]1` (some centres unmarked) [Compound 94], under “Table 1”, the IC50 was in the range of 0.06 to 20 nM and the Emax is more than 80%.
As to `Cc1ccccc1-n1ncc2c1C=C1CCC3C([C@@H](O)CC4(C)C3CC[C@]4(O)C(=O)CSc3nc4ccccc4n3C)C1(C)C2` (some centres unmarked) [Compound 77], the Emax (Table 1) was less than 60%.
Turning to `CC12Cc3cnn(-c4ccc(F)cc4)c3C=C1CCC1C2[C@@H](O)CC2(C)C1CC[C@]2(O)C(=O)N[C@@H](CO)Cc1ccc2ccccc2c1` (some centres unmarked) [Compound 22], under “Table 2”, the concentration for half-maximal inhibition (IC50) lay within 0.06 to 20 nM and the Emax is more than 80%.
For `C[C@]12Cc3cnn(-c4ccc(F)cc4)c3C=C1CCC1C2[C@@H](O)C[C@@]2(C)C1CC[C@]2(O)C(=O)NC1(c2ncc(F)cc2F)CC1` (some centres unmarked) [Compound 8], where the note is “Table 2”, the IC50 lay within 0.06 to 20 nM and the Emax is more than 80%.
With `CC12Cc3cnn(-c4ccc(F)cc4)c3C=C1CCC1C2[C@@H](O)CC2(C)C1CC[C@]2(O)C(=O)COc1nc2ccccc2o1` (some centres unmarked) [Compound 104], where the note is “Table 1”, the IC50 fell in the range of 0.06 to 20 nM and the Emax is more than 80%.
For `Cn1c(OCC(=O)[C@@]2(O)CCC3C4CCC5=Cc6c(cnn6-c6ccc(F)cc6)CC5(C)C4[C@@H](O)CC32C)nc2ccccc21` (some centres unmarked) [Compound 112] the same measures were 0.06 to 20 nM and more than 80%.
As for `CC12Cc3cnn(C(C)(C)C)c3C=C1CCC1C2[C@@H](O)CC2(C)C1CC[C@]2(O)C(=O)CSc1nc2cccnc2s1` (some centres unmarked) [Compound 64], the Emax (Table 1) is less than 60%.
Consider `COc1ccc2nc(SCC(=O)[C@@]3(O)CCC4C5CCC6=Cc7c(cnn7-c7ccc(F)cc7)CC6(C)C5[C@@H](O)CC43C)sc2c1` (some centres unmarked) [Compound 103], for which, for the setting “Table 1”, the IC50 was in the range of 0.06 to 20 nM and the Emax was more than 80%.
Consider `COc1ccc(-n2ncc3c2C=C2CCC4C([C@@H](O)CC5(C)C4CC[C@]5(O)C(=O)CSc4ccccn4)C2(C)C3)cc1` (some centres unmarked) [Compound 88], for which, under “Table 1”, the IC50 lay in the range of 66 to 400 nM and the Emax lay within 60 to 70%.
Turning to `Cc1nc(SCC(=O)[C@@]2(O)CCC3C4CCC5=Cc6c(cnn6C6CCCCC6)CC5(C)C4[C@@H](O)CC32C)sc1C` (some centres unmarked) [Compound 130], for the setting “Table 1”, the IC50 lay in the range of 0.06 to 20 nM and the Emax is more than 80%.
Take `C[C@]12Cc3cnoc3C=C1CCC1C2[C@@H](O)C[C@@]2(C)C1CC[C@]2(O)C(=O)CSc1nc2ccccc2s1` (some centres unmarked) [Compound 6]: the Emax (Table 3) is less than 60%.
In the case of `Cn1c(SCC(=O)[C@@]2(O)CCC3C4CCC5=Cc6c(cnn6CCC#N)CC5(C)C4[C@@H](O)CC32C)nc2ccccc21` (some centres unmarked) [Compound 48], under “Table 1”, the IC50 was in the range of 66 to 400 nM and the Emax is less than 60%.
Regarding `CC12Cc3cnn(-c4ccc(F)cc4)c3C=C1CCC1C2[C@@H](O)CC2(C)C1CC[C@]2(O)C(=O)COc1nccc2ccccc12` (some centres unmarked) [Compound 114], under “Table 1”, the IC50 is 0.06 to 20 nM and the Emax is more than 80%.
With `Cc1ccccc1-n1ncc2c1C=C1CCC3C([C@@H](O)CC4(C)C3CC[C@]4(O)C(=O)CSc3nc4cccnc4s3)C1(C)C2` (some centres unmarked) [Compound 78], where the note is “Table 1”, the Emax is less than 60%.
On to `CC12Cc3cnn(C4CCCCC4)c3C=C1CCC1C2[C@@H](O)CC2(C)C1CC[C@]2(O)C(=O)CSc1nc(-c2ccccc2)cs1` (some centres unmarked) [Compound 133], for which, where the note is “Table 1”, the IC50 is 21 to 65 nM and the Emax was more than 80%.
In the same order, the values of `CC12Cc3cnn(-c4ccccc4)c3C=C1CCC1C2[C@@H](O)CC2(C)C1CC[C@]2(O)C(=O)CSc1nc2ccccc2o1` (some centres unmarked) [Compound 19] are 401 to 1000 nM and less than 60%.
On to `CC12Cc3cnn(C(C)(C)C)c3C=C1CCC1C2[C@@H](O)CC2(C)C1CC[C@]2(O)C(=O)CSc1ccc2ccccc2n1` (some centres unmarked) [Compound 67], for which, for the setting “Table 1”, the Emax is less than 60%.
For `Cc1cnn(CC(=O)[C@@]2(O)CCC3C4CCC5=Cc6c(cnn6-c6ccc(F)cc6)CC5(C)C4[C@@H](O)CC32C)c1` (some centres unmarked) [Compound 4], where the note is “Table 7”, the IC50 lay in the range of 0.06 to 20 nM and the Emax was more than 80%.
For `Cn1c(OCC(=O)[C@@]2(O)CCC3C4CCC5=Cc6c(cnn6-c6ccccc6)CC5(C)C4[C@@H](O)CC32C)nc2ccccc21` (some centres unmarked) [Compound 119], where the note is “Table 1”, the IC50 fell in the range of 0.06 to 20 nM and the Emax was more than 80%.
In the case of `CC12Cc3cnn(-c4ccc(F)cc4)c3C=C1CCC1C2[C@@H](O)CC2(C)C1CC[C@]2(OC(=O)c1ccco1)C(=O)NCCc1cnccn1` (some centres unmarked) [Compound 17], under “Table 2”, the IC50 was in the range of 0.06 to 20 nM and the Emax was more than 80%.
As to `COc1ccc(-n2ncc3c2C=C2CCC4C([C@@H](O)CC5(C)C4CC[C@]5(O)C(=O)CSc4nc5ccccc5s4)C2(C)C3)cc1` (some centres unmarked) [Compound 85], under “Table 1”, the IC50 was in the range of 66 to 400 nM and the Emax lay within 70 to 80%.
Consider `Cn1c(SCC(=O)[C@@]2(O)CCC3C4CCC5=Cc6c(cnn6C(C)(C)C)CC5(C)C4[C@@H](O)CC32C)nc2ccccc21` (some centres unmarked) [Compound 63], for which the Emax (Table 1) was less than 60%.
Consider `CC12Cc3cnn(-c4ccccn4)c3C=C1CCC1C2[C@@H](O)CC2(C)C1CC[C@]2(O)C(=O)CSc1nc2ccccc2o1` (some centres unmarked) [Compound 36], for which, where the note is “Table 1”, the IC50 fell in the range of 0.06 to 20 nM and the Emax is more than 80%.
Turning to `C[C@]12Cc3cnoc3C=C1CCC1C2[C@@H](O)C[C@@]2(C)C1CC[C@]2(O)C(=O)CSc1cnc2ccccc2n1` (some centres unmarked) [Compound 2], the Emax (Table 3) is less than 60%.
For `CC12Cc3cnn(CCC#N)c3C=C1CCC1C2[C@@H](O)CC2(C)C1CC[C@]2(O)C(=O)CSc1nc2ccccc2[nH]1` (some centres unmarked) [Compound 52], under “Table 1”, the IC50 was 401 to 1000 nM and the Emax was less than 60%.
As to `Cn1ncc2c1C=C1CCC3C([C@@H](O)CC4(C)C3CC[C@]4(O)C(=O)CSc3cnc4ccccc4n3)C1(C)C2` (some centres unmarked) [Compound 30], where the note is “Table 1”, the IC50 is 66 to 400 nM and the Emax lay within 60 to 70%.
`Cn1ncc2c1C=C1CCC3C([C@@H](O)CC4(C)C3CC[C@]4(O)C(=O)CSc3nc4ccccc4o3)C1(C)C2` (some centres unmarked) [Compound 22]: for the setting “Table 1”, the IC50 is 66 to 400 nM and the Emax is less than 60%.
In the case of `Cc1cc(C)nc(SCC(=O)[C@@]2(O)CCC3C4CCC5=Cc6c(cnn6-c6ccc(F)cc6)CC5(C)C4[C@@H](O)CC32C)n1` (some centres unmarked) [Compound 101], for the setting “Table 1”, the IC50 is 0.06 to 20 nM and the Emax is more than 80%.
As to `Cc1ccccc1-n1ncc2c1C=C1CCC3C([C@@H](O)CC4(C)C3CC[C@]4(O)C(=O)CSc3nc4ncccc4o3)C1(C)C2` (some centres unmarked) [Compound 79], where the note is “Table 1”, the Emax was less than 60%.
For the compound `Cn1c(SCC(=O)[C@@]2(O)CCC3C4CCC5=Cc6c(cnn6-c6ccccn6)CC5(C)C4[C@@H](O)CC32C)nc2ccccc21` (some centres unmarked) [Compound 34], under “Table 1”, the IC50 was in the range of 66 to 400 nM and the Emax is 60 to 70%.
`CC12Cc3cnn(CCC#N)c3C=C1CCC1C2[C@@H](O)CC2(C)C1CC[C@]2(O)C(=O)CSc1ccc2ccccc2n1` (some centres unmarked) [Compound 51]: the Emax (Table 1) is less than 60%.
As for `CC12Cc3cnn(-c4ccccn4)c3C=C1CCC1C2[C@@H](O)CC2(C)C1CC[C@]2(O)C(=O)CSc1nc2cccnc2s1` (some centres unmarked) [Compound 42], where the note is “Table 1”, the IC50 lay within 66 to 400 nM and the Emax was in the range of 70 to 80%.
In the case of `CC12Cc3cnn(-c4ccc(F)cc4)c3C=C1CCC1C2[C@@H](O)CC2(C)C1CC[C@]2(O)C(=O)NCc1nc2ccccc2o1` (some centres unmarked) [Compound 20], under “Table 2”, the IC50 lay in the range of 0.06 to 20 nM and the Emax is more than 80%.
For `C[C@]12Cc3cnn(-c4ccc(F)cc4)c3C=C1CCC1C2[C@@H](O)C[C@@]2(C)C1CC[C@]2(O)C(=O)NCCc1cnccn1` (some centres unmarked) [Compound 11] the same measures were 0.06 to 20 nM and more than 80%.
On to `Cn1nnnc1SCC(=O)[C@@]1(O)CCC2C3CCC4=Cc5c(cnn5-c5ccc(F)cc5)CC4(C)C3[C@@H](O)CC21C` (some centres unmarked) [Compound 100], for which, for the setting “Table 1”, the IC50 lay within 0.06 to 20 nM and the Emax is more than 80%.
As to `CC12Cc3cnn(-c4ccc(F)cc4)c3C=C1CCC1C2[C@@H](O)CC2(C)C1CC[C@]2(O)C(=O)CSc1nc2cccnc2s1` (some centres unmarked) [Compound 10], under “Table 1”, the IC50 lay in the range of 0.06 to 20 nM and the Emax is more than 80%.
Turning to `C[C@]12Cc3cnn(-c4ccc(F)cc4)c3C=C1CCC1C2[C@@H](O)C[C@@]2(C)C1CC[C@]2(O)C(=O)NC1(c2ccccc2)CC1` (some centres unmarked) [Compound 4], for the setting “Table 2”, the IC50 was 0.06 to 20 nM and the Emax is more than 80%.
For the compound `Cn1c(SCC(=O)[C@@]2(O)CCC3C4CCC5=Cc6c(cnn6C6CCOCC6)CC5(C)C4[C@@H](O)CC32C)nc2ccccc21` (some centres unmarked) [Compound 70], for the setting “Table 1”, the IC50 is 21 to 65 nM and the Emax was more than 80%.
For `Cn1c(SCC(=O)[C@@]2(O)CCC3C4CCC5=Cc6oncc6C[C@]5(C)C4[C@@H](O)C[C@@]32C)nc2ccccc21` (some centres unmarked) [Compound 5], for the setting “Table 3”, the IC50 is 401 to 1000 nM and the Emax is less than 60%.
Consider `CC12Cc3cnn(-c4ccccc4)c3C=C1CCC1C2[C@@H](O)CC2(C)C1CC[C@]2(O)C(=O)COc1nc2ccccc2[nH]1` (some centres unmarked) [Compound 118], for which, where the note is “Table 1”, the IC50 was in the range of 0.06 to 20 nM and the Emax is more than 80%.
For `Cn1c(SCC(=O)[C@@]2(O)CCC3C4CCC5=Cc6c(cnn6-c6nc7ccccc7[nH]6)CC5(C)C4[C@@H](O)CC32C)nc2ccccc21` (some centres unmarked) [Compound 84], the Emax (Table 1) is less than 60%.
Turning to `Cn1cnnc1SCC(=O)[C@@]1(O)CCC2C3CCC4=Cc5c(cnn5CCC#N)CC4(C)C3[C@@H](O)CC21C` (some centres unmarked) [Compound 55], where the note is “Table 1”, the Emax is less than 60%.
For `CC12Cc3cnn(C(C)(C)C)c3C=C1CCC1C2[C@@H](O)CC2(C)C1CC[C@]2(O)C(=O)CSc1nc2ccccc2s1` (some centres unmarked) [Compound 62], the Emax (Table 1) was less than 60%.

For the origin of these results see patent publication US20120171126A1, “NOVEL [3,2-c] HETEROARYL STEROIDS AS GLUCOCORTICOID RECEPTOR AGONISTS COMPOSITIONS AND USES THEREOF” (priority 2009, published 2012).
